From US9301945B2, “Methods for treating inflammatory conditions and states, and cancers by antagonizing NF-κB activation” (Emory University, priority 2011, dated 2016)
Entries after “also recorded” stand apart in the source; their conditions may differ.

Columns and labels:
[1] = test system: MC3T3 osteoblast precursors; assay: Osteoblast differentiation / mineralization assay with Alizarin Red-S staining; format: cell-based, mouse; conditions: for osteoblast mineralization (calcium deposition, Alizarin Red-S): 200 μM, 17 days of culture, mineralizing medium, no TNFα
Procedure: (§1) The mouse preosteoblastic cell line MC3T3-E1, clone 14 (MC3T3) and the mouse monocytic cell line RAW264.7 were purchased from the Amerimay Type Culture Collection (Manassas, Va.) and cultured as described in, for example, Li et al. (2007) J Bone Miner Res 22(5): 646-655; and Yamaguchi et al. (2009) Int J Mol Med 24(5): 671-675.
For mineralization assays MC3T3 cells were plated in 12-well dishes at a density of 1.0×10^5 cells per well in mineralization medium (α-MEM supplemented with 10% FBS, L-ascorbic acid (100 μg/ml) and 4 mM β-glycerophosphate) as previously described in, for example, Li et al. (2007) J Bone Miner Res 22(5): 646-655; and Sugimoto et al. (2000) Int J Mol Med 5(5): 515-520. Strontium ranelate, sodium ranelate or strontium chloride were added at the indicated doses and cells replenished with fresh medium every 3 days. At 17-18 days of culture, cells were rinsed with PBS and calcium deposition was visualized by fixing the cells in 75% ethanol for 30 minutes at 4° C. followed by staining with Alizarin Red-S (40 mM, pH 6.2) for 30 minutes at room temperature. Excess stain was removed by copious washing with distilled water. Plates were imaged using a flatbed smayner (Epson Perfection 1660 Photo).
The mechanism by which strontium ranelate promotes osteoblast differentiation was investigated using an in vitro model. The in-vitro model used to investigate utilizes the MC3T3 mouse pre-osteoblast cell line that differentiates spontaneously into active osteoblasts within 21 days of culture in medium containing ascorbic acid and β-glycerophosphate (mineralizing medium).

[2] = test system: TNFα-induced NF-κB activation in MC3T3 osteoblast precursors; assay: NF-κB luciferase reporter assay in MC3T3 cells stimulated with TNFα; format: cell-based, mouse; conditions: 24 h
Excerpt: (§2) The NF-κB responsive reporter pNF-κB-Luc (BD Biosciences) and the Smad responsive reporter pGL3-Smad were used as previously described by in, for example, Li et al. (2007) J Bone Miner Res 22(5): 646-65. Briefly, reporter plasmids were transfected into MC3T3 or RAW264.7 cells (1×10^5 cells/well) using Lipofectamine 2000 reagent (Invitrogen) in α-MEM without FBS and antibiotics. Five hours later the medium was changed to α-MEM containing 10% FBS plus antibiotics and MC3T3 cells treated with TNFα (1 or 10 ng/ml as indicated) or RAW264.7 cells treated with RANKL (30 ng/ml) to stimulate NF-κB activity. In some experiments, Smad activity was induced in MC3T3 cells using TGFβ (1 ng/ml). Strontium ranelate, sodium ranelate or strontium chloride were added at the indicated doses. Cells were extracted with passive lysis buffer (Promega Corporation, Madison Wis.) 24 hours later, and luciferase activity was measured using the Luciferase Assay System of Promega, on a microplate luminometer (Turner Designs, Sunnyvale, Calif., USA).
A major mechanism by which TNFα mediates its suppressive action on osteoblasts is through NF-κB activation. See Li et al. (2007) J Bone Miner Res 22(5): 646-655; and Nanes (2003) Gene 321: 1-15.

[3] = test system: TGFβ-induced Smad activation in MC3T3 cells; assay: Smad luciferase reporter assay in MC3T3 cells (TGFβ with or without TNFα); format: cell-based, mouse; conditions: 24 h; for direct effect on basal Smad activity: 500 μM; for effect on TNFα suppression of TGFβ-induced Smad activity: TGFβ 1 ng/ml, TNFα 1 ng/ml, concentrations of 100 μM and above
Excerpt: as §2
TGFβ is a potent early osteoblast precursor commitment and recruitment factor. See, e.g., See Janssens et al. (2005) Endocr Rev 26(6): 743-774; and Tang et al. (2009) Nat Med 15(7): 757-765. It has been reported that TNFα antagonizes TGFβ-induced Smad signaling in osteoblast precursors (see, e.g., Li et al. (2007) J Bone Miner Res 22(5): 646-655) and consequently investigated whether strontium ranelate may alleviate TNFα-induced suppression of TGFβ-induced Smad signaling in preosteoblasts. MC3T3 cells were transiently transfected with a Smad responsive luciferase reporter and Smad-induced transcription quantitated following stimulation by TGFβ.

[4] = test system: RAW264.7 osteoclast precursors; assay: Osteoclastogenesis assay with TRAP staining; format: cell-based, mouse; conditions: RANKL 30 ng/ml, 7 days
Procedure: as §1
RAW264.7 cells were cultured in 96-well plates in α-MEM supplemented with 10% FBS and 100 IU/ml penicillin, and 100 μg/ml streptomycin at a density of 1×10^4 cells/well. Cells were cultured for 6 days with RANKL ([…]) pre-incubated for 10 minutes with crosslinking anti-poly-histidine antibody (2.5 μg/ml), to induce osteoclast formation. Strontium ranelate, sodium ranelate or strontium chloride were added at the indicated doses. After 6 days of culture, the cells were fixed and stained for TRAP, a specific maker of the osteoclast phenotype, using a leukocyte acid phosphatase kit. TRAP+ cells with three or more nuclei were defined as osteoclasts and were quantitated under light microscopy, and normalized for cell size based on number of nuclei. Five wells per group were averaged. Representative wells were photographed under bright field microscopy using a Nikon Eclipse TE2000-S inverted microscope equipped with a digital camera (QImaging Corp., Burnaby, BC, Mayada).
To establish an in vitro osteoclastogenesis model suitable for investigation of strontium ranelate activity, the monocytic cell line RAW 264.7 was employed and differentiated into osteoclasts by addition of the key osteoclastogenic cytokine RANKL was induced. The effect of strontium ranelate on osteoclast differentiation was tested over a dose range from 1 μM to 200 μM and cultures were stained with TRAP 7 days later and osteoclast formation quantitated.

[5] = test system: RANKL-induced NF-κB activation in RAW264.7 osteoclast precursors; assay: NF-κB luciferase reporter assay in RAW264.7 cells stimulated with RANKL; format: cell-based, mouse; conditions: RANKL 30 ng/ml, dose range 1 to 1000 μM, 24 h
Excerpt: as §2
See Caudrillier et al. (2010) Mol Pharmacol 78(4):569-576.

[6] = test system: NF-κB nuclear translocation; conditions: reported by Caudrillier et al. (2010); cited from earlier work
postmenopausal women = conditions: clinical trials; cited from earlier work
[7] = in vitro osteoblast differentiation and mineralization assays

Structure (SMILES)	osteoblast mineralization (calcium deposition, Alizarin Red-S) [1]	effect on TNFα suppression of basal mineralization ([1]; TNFα 5 ng/ml, 10 μM)	mineralization relative to basal levels in presence of TNFα ([1]; TNFα 5 ng/ml, 100 and 200 μM)	lowest dose achieving significant biological activities [1, 7]	saturating dose [1, 7]	TNFα-induced NF-κB activity (luciferase) ([2]; TNFα 1 ng/ml, 200 μM)	TNFα-induced NF-κB activity (luciferase) ([2]; high TNFα 10 ng/ml, dose range 1 to 1000 μM)	TNFα-induced NF-κB activity (luciferase) ([2]; low TNFα 1 ng/ml, dose range 1 to 1000 μM)	direct effect on basal Smad activity [3]	effect on TNFα suppression of TGFβ-induced Smad activity [3]	RANKL-induced osteoclast formation (TRAP+ multinucleated cells) ([4]; 1 μM)	RANKL-induced osteoclast formation (TRAP+ multinucleated cells) ([4]; 10 or 100 μM)	RANKL-induced NF-κB activity (luciferase) [5]	RANKL-induced NF-κB activity (luciferase) ([5]; listed as Strontium ranelate)	RANKL-induced NF-κB nuclear translocation [6]	bone loss (postmenopausal women)	fracture risk (postmenopausal women)
N#Cc1c(N(CC(=O)[O-])CC(=O)[O-])sc(C(=O)[O-])c1CC(=O)[O-].[Sr+2].[Sr+2] [strontium ranelate, distrontium salt of 2-[N,N-di(carboxymethyl)amino]-3-cyano-4-carboxymethylthiophene-5-carboxylic acid]	promote a robust osteoblast mineralization; also recorded: robust enhancement in mineralization	completely reversed the suppressive effect of TNFα on basal mineralization	potently augmented mineralization over basal levels	1 μM	100 µM	significantly suppressed TNFα-induced NF-κB activity	dose dependently suppressed TNFα-induced NF-κB activity	dose dependently suppressed TNFα-induced NF-κB activity	no direct effects on Smad activity	significantly alleviates the suppressive effect of TNFα on TGFβ-induced Smad activation	significantly suppressed	potently suppresses osteoclast formation at both doses	potently antagonize RANKL-induced NF-κB activation	dose-dependently and significantly blunted RANKL-induced NF-κB activity	antagonize RANKL-induced NF-κB nuclear translocation	protect against bone loss	reduce fracture risk
[Cl-].[Cl-].[Sr+2] [strontium chloride]	no stimulatory effects on osteoblast mineralization					completely ineffective						neither strontium chloride nor sodium ranelate had any effect on osteoclast formation	no significant effect; also recorded: failed to suppress NF-κB activity				
N#Cc1c(N(CC(=O)[O-])CC(=O)[O-])sc(C(=O)[O-])c1CC(=O)[O-].[Na+].[Na+].[Na+].[Na+] [sodium ranelate]	no stimulatory effects on osteoblast mineralization					completely ineffective			no direct effect on basal Smad activity	significantly relieved the suppressive effect of TNFα on TGFβ-induced Smad activity		neither strontium chloride nor sodium ranelate had any effect on osteoclast formation					
